{"source": "patent US20090169606A1", "about": "“Low Flexural Strength Transdermal Tobacco Alkaloid Patch” (Fertin Pharma, priority 2005, published 2009)", "origin": "cited, not measured here", "settings": "pure nicotine placed on the skin of an ordinary human being"}
{"smiles": "CN1CCCC1c1cccnc1", "note": "(stereo not shown) [nicotine]", "values": [{"measurement": "lethal dose", "result": 50, "unit": "mg"}]}
